These are literature values, as cited in article PMC3575012 (Scientific Reports, 2013).

The test system of one data set is Alzheimer's disease. The following applies: cohort of patients suffering “mild” AD; ref not given.
Data set [1] deals with amyloid precursor protein. The following applies: stated as known, explained by buried free N-terminus of Aβ; ref not given.

As for Solanezumab, the cognitive improvement result with Alzheimer's disease is given as “small but significant cognitive improvement”. For Bapineuzumab, the binding preference entry in the data set with plaque deposited Aβ is reported as “Preferential binding”. Further, the “cross reactivity with the amyloid precursor protein” value in data set [1] is listed as “lack of cross reactivity”.
